Measurements taken from ChEMBL document CHEMBL4823294, “Discovery of cinnoline derivatives as potent PI3K inhibitors with antiproliferative activity” (Bioorg Med Chem Lett, 2021).
Calls of active or inactive are those of the source. The calls are words filed in the database; no cut-off is given here.

Columns and labels:
[1] = target: T1, Phosphatidylinositol 4,5-bisphosphate 3-kinase catalytic subunit delta isoform (Homo sapiens, UniProt O00329); assay: Inhibition of PI3Kdelta (unknown origin)
T1 sequence (O00329 whole entry): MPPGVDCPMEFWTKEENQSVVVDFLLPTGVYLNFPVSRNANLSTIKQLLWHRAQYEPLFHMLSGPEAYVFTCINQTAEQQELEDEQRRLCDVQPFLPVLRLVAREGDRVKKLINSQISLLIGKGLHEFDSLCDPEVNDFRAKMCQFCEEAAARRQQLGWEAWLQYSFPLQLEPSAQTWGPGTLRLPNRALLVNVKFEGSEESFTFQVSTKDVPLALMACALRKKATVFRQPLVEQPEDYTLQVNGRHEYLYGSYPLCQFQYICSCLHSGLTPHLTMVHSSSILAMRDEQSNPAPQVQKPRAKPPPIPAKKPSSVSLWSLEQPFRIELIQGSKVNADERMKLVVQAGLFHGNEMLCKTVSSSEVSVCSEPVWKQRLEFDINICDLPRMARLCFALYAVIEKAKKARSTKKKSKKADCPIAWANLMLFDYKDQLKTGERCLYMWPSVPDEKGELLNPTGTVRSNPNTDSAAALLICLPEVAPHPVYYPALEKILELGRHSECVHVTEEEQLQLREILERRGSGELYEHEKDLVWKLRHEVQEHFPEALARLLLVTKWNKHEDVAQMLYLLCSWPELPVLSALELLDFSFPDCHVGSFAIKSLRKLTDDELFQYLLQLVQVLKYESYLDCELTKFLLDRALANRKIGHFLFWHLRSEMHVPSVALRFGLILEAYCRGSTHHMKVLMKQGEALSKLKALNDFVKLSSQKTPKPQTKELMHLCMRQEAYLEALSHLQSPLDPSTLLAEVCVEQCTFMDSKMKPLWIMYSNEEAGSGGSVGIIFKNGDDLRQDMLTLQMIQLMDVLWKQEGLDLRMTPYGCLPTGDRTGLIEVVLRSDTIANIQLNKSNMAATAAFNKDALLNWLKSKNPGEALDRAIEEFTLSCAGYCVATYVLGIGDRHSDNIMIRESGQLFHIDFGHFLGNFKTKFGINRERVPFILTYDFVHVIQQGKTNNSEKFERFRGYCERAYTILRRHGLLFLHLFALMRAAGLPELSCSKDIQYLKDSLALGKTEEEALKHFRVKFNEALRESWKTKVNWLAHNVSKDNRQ

[2] = target: Phosphatidylinositol 4,5-bisphosphate 3-kinase catalytic subunit gamma isoform (Homo sapiens, UniProt P48736); assay: Inhibition of PI3Kgamma (unknown origin)
[3] = target: Phosphatidylinositol 4,5-bisphosphate 3-kinase catalytic subunit beta isoform (Homo sapiens, UniProt P42338); assay: Inhibition of PI3Kbeta (unknown origin)
[4] = target: Phosphatidylinositol 4,5-bisphosphate 3-kinase catalytic subunit alpha isoform (Homo sapiens, UniProt P42336); assay: Inhibition of PI3Kalpha (unknown origin)
A549 = assay: Antiproliferative activity against human A549 cells; format: functional, cell-based
HeLa = assay: Antiproliferative activity against human HeLa cells; format: functional, cell-based
U-87 MG [5] = assay: Antiproliferative activity against human U-87 MG cells; format: functional, cell-based, U-87MG ATCC
MCF7 = assay: Antiproliferative activity against human MCF7 cells; format: functional, cell-based
HepG2 = assay: Antiproliferative activity against human HepG2 cells; format: functional, cell-based
HL-60 = assay: Antiproliferative activity against human HL-60 cells; format: functional, cell-based
U-87 MG [6] = assay: Inhibition of Akt expression in human U-87 MG cells at 5 uM by Western blotting analysis; format: cell-based
U-87 MG [7] = assay: Inhibition of Akt phosphorylation at Ser473 in human U-87 MG cells at 1 to 5 uM by Western blotting analysis; format: cell-based; details: dose 1-5 µM
U-87 MG [8] = assay: Inhibition of Akt expression in human U-87 MG cells at 1 uM by Western blotting analysis; format: cell-based

Phosphatidylinositol 4,5-bisphosphate 3-kinase catalytic subunit beta isoform, sequence (P42338 whole entry, canonical isoform): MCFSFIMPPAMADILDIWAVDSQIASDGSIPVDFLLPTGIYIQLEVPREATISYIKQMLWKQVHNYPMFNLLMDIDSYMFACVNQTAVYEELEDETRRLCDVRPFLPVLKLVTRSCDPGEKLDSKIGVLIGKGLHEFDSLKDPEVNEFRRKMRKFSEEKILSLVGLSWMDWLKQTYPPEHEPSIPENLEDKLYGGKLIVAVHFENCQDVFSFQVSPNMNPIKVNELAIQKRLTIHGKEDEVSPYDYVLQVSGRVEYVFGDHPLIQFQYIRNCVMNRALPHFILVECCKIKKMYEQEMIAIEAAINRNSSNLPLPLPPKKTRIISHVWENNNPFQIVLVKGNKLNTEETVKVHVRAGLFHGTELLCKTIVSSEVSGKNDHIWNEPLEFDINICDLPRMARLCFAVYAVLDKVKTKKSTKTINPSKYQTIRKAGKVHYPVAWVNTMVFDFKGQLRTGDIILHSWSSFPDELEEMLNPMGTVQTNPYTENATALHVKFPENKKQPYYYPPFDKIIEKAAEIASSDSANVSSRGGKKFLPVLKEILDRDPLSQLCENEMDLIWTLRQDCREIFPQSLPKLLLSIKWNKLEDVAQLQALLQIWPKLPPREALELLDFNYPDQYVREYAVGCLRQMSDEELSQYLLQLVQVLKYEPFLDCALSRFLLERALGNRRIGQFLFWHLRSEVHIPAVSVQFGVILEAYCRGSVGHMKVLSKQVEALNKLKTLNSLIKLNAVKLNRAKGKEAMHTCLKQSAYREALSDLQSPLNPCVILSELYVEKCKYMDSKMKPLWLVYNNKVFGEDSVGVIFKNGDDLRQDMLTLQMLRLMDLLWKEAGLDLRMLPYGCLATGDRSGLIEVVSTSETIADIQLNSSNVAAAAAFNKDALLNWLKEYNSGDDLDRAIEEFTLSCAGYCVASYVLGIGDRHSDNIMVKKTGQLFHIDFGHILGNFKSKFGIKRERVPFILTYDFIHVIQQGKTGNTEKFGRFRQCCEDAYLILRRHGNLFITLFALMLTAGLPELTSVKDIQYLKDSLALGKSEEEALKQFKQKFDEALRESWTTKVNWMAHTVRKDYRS
Phosphatidylinositol 4,5-bisphosphate 3-kinase catalytic subunit alpha isoform, sequence (P42336 whole entry, canonical isoform): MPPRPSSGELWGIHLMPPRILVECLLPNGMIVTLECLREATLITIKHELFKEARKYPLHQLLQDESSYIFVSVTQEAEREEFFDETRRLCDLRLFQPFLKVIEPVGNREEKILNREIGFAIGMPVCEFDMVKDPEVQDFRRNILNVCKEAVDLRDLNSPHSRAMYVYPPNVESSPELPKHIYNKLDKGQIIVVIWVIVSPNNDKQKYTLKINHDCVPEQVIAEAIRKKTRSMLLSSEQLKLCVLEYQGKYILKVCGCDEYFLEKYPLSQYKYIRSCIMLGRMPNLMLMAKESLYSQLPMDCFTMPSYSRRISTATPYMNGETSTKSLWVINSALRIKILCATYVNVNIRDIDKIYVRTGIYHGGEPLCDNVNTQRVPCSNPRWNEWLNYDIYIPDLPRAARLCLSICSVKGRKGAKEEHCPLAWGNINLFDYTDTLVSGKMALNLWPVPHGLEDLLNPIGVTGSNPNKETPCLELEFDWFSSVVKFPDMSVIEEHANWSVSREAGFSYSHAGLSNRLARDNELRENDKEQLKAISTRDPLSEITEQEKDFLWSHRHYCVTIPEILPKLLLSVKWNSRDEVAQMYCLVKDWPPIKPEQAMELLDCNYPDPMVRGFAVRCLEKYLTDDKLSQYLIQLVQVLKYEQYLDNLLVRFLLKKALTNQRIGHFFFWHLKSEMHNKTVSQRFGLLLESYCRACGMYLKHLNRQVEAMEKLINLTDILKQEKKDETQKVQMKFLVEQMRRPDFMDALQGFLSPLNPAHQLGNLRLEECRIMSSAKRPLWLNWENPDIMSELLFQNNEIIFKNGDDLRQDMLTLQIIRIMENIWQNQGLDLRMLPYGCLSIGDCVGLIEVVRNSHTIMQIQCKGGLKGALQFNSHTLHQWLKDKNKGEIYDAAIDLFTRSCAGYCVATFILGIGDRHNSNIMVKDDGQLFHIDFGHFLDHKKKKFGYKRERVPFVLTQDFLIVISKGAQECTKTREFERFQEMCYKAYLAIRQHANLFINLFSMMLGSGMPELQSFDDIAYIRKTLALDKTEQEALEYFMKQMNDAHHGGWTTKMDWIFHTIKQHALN
Phosphatidylinositol 4,5-bisphosphate 3-kinase catalytic subunit gamma isoform, sequence (P48736 whole entry, canonical isoform): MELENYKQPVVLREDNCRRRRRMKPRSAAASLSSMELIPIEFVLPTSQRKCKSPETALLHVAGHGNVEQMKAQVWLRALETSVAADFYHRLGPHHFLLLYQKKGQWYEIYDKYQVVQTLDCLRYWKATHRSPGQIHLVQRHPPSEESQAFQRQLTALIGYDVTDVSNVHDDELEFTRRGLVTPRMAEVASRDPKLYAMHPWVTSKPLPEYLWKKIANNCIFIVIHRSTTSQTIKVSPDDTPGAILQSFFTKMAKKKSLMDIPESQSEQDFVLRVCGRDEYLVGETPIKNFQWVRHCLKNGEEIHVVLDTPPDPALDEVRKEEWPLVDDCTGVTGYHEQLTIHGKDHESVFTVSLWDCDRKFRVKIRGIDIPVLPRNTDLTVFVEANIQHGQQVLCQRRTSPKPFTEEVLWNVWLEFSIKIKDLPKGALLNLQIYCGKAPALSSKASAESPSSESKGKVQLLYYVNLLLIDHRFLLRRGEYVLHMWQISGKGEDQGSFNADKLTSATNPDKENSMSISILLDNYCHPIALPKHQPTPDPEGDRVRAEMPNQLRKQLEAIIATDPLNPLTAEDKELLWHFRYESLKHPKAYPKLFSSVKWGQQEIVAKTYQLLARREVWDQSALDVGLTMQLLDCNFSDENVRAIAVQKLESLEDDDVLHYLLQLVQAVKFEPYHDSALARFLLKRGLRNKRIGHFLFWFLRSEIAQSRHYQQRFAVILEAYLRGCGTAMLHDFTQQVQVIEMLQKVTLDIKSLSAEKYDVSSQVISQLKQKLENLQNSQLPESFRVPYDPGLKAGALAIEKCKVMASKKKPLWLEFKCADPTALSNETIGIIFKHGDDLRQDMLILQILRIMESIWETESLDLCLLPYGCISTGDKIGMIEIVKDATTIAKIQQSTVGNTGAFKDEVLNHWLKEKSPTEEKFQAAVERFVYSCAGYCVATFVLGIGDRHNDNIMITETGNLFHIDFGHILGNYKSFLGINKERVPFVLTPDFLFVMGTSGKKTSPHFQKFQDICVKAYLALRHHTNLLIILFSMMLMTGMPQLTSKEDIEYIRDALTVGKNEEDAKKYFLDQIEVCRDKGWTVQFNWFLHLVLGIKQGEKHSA

SMILES	IC50 [1] [nM]	IC50 [2] [nM]	IC50 [3] [nM]	IC50 [4] [nM]	further results
O=S(=O)(Nc1cc(-c2ccc3nncc(-c4ccc(N5CCOCC5)nc4)c3c2)cnc1Cl)c1ccccc1	0.28	1.89	1.54	0.709	
COc1ccc(CNc2cnnc3ccc(-c4cnc(Cl)c(NS(=O)(=O)c5ccccc5)c4)cc23)cc1	1.02				
CC(=O)Nc1ccc(Nc2cnnc3ccc(-c4cnc(Cl)c(NS(=O)(=O)c5ccccc5)c4)cc23)cc1	3.3				
CCCCCCOc1cnnc2ccc(-c3cnc(Cl)c(NS(=O)(=O)c4ccccc4)c3)cc12	215				
O=S(=O)(Nc1cc(-c2ccc3nnccc3c2)cnc1Cl)c1ccccc1	19.4				
O=S(=O)(Nc1cc(-c2ccc3nncc(O)c3c2)cnc1Cl)c1ccccc1	833				
C[C@H](Nc1cnnc2ccc(-c3cnc(Cl)c(NS(=O)(=O)c4ccccc4)c3)cc12)c1ccccc1	27				
O=S(=O)(Nc1cc(-c2ccc3nncc(-c4ccncc4)c3c2)cnc1Cl)c1ccccc1	0.36	2.25	1.7	0.71	
O=S(=O)(Nc1cc(-c2ccc3nncc(Cl)c3c2)cnc1Cl)c1ccccc1	0.55				
CC1CCN(c2cnnc3ccc(-c4cnc(Cl)c(NS(=O)(=O)c5ccccc5)c4)cc23)CC1	0.32	3.66	5.33	1.61	
CCOc1cnnc2ccc(-c3cnc(Cl)c(NS(=O)(=O)c4ccccc4)c3)cc12	0.4	4.73	5.61	1.78	
O=S(=O)(Nc1cc(-c2ccc3nncc(Nc4ccccc4)c3c2)cnc1Cl)c1ccccc1	4.47				
COc1ncc(-c2ccc3nncc(N4CCOCC4)c3c2)cc1NS(=O)(=O)c1ccccc1	4.08				
O=S(=O)(Nc1cc(-c2ccc3nncc(N4CCOCC4)c3c2)cnc1Cl)c1ccccc1	0.85	4.36	14.5	1.55	IC50 (A549): > 16.6 µM; IC50 (HeLa): 7.7 µM; IC50 (U-87 MG [5]): 2020 nM; IC50 (MCF7): 13.1 µM; IC50 (HepG2): 18.3 µM; IC50 (HL-60): > 16600 nM
COc1ncc(-c2ccc3nncc(Cl)c3c2)cc1NS(=O)(=O)c1ccccc1	4.42				
O=S(=O)(Nc1cc(-c2ccc3nncc(N4CCCC4)c3c2)cnc1Cl)c1ccccc1	0.87	5.97	5.41	2.64	
O=S(=O)(Nc1cc(-c2ccc3nncc(-c4ccccc4)c3c2)cnc1Cl)c1ccccc1	2.91				
C[C@@H](Nc1cnnc2ccc(-c3cnc(Cl)c(NS(=O)(=O)c4ccccc4)c3)cc12)c1ccccc1	5.46				
COc1ncc(-c2ccc3nncc(Nc4ccccc4)c3c2)cc1NS(=O)(=O)c1ccccc1	30.3				
Oc1cccc(-c2nc(N3CCOCC3)c3oc4ncccc4c3n2)c1 [PI-103]					IC50 (HeLa): 0.23 µM; IC50 (HL-60): 65.6 nM
O=S(=O)(Nc1cc(-c2ccc3nncc(-c4cnc(N5CCOCC5)nc4)c3c2)cnc1Cl)c1ccccc1	0.65	4.42	4.72	0.936	inhibition (U-87 MG [6]): Active; IC50 (A549): 10.1 µM; inhibition (U-87 MG [7]): Active; IC50 (HeLa): 2.04 µM; IC50 (U-87 MG [5]): 264 nM; IC50 (MCF7): 31.1 µM; IC50 (HepG2): > 16.6 µM; inhibition (U-87 MG [8]): inactive; IC50 (HL-60): 1140 nM
O=S(=O)(Nc1cc(-c2ccc3nncc(N4CCNCC4)c3c2)cnc1Cl)c1ccccc1	1.58				IC50 (A549): > 50 µM; IC50 (HeLa): > 16.6 µM; IC50 (U-87 MG [5]): 589 nM; IC50 (MCF7): > 50 µM; IC50 (HepG2): > 50 µM; IC50 (HL-60): > 16600 nM
COc1ncc(-c2ccc3nncc(Nc4ccc(NC(C)=O)cc4)c3c2)cc1NS(=O)(=O)c1ccccc1	8.57				
O=S(=O)(Nc1cc(-c2ccc3nncc(-n4ccnc4)c3c2)cnc1Cl)c1ccccc1	0.21	4.02	2.39	1.37	IC50 (A549): > 50 µM; IC50 (HeLa): > 50 µM; IC50 (U-87 MG [5]): 16700 nM; IC50 (MCF7): 39.9 µM; IC50 (HepG2): > 16.6 µM; IC50 (HL-60): 2400 nM
O=S(=O)(Nc1cc(-c2ccc3nncc(N4CCCCC4)c3c2)cnc1Cl)c1ccccc1	0.67	3.19	4.6	1.33	
O=S(=O)(Nc1cc(-c2ccc3nncc(-c4ccc(N5CCOCC5)cc4)c3c2)cnc1Cl)c1ccccc1	0.4	2.29	3.04	0.711	
COc1cnnc2ccc(-c3cnc(Cl)c(NS(=O)(=O)c4ccccc4)c3)cc12	1.1				
